Here are results for 28 compounds from US8735414B2 (priority 2009, dated 2014).

A word on the IC50: it is the concentration at which inhibition is half-maximal. One may read the melting point as the temperature of the solid-liquid transition.

The structures appear in SMILES notation.

Series [1] concerns bicistronic HCV replicon (replicon RNA, GenBank Accession No. AJ242654). Description: HCV Replicon Assay. The class given is cell-based. To be noted: Hepatitis C virus, 72 h, read-out: Replicon IC50.

`Cc1ccc2c(C#N)c(-c3ccc(S(=O)(=O)NC(CF)CF)cn3)n(CC3CC3)c2c1` [compound 81, 6-[3-cyano-1-(cyclopropylmethyl)-6-methyl-1H-indol-2-yl]-N-(1,3-difluoropropan-2-yl)pyridine-3-sulfonamide] had a melting point of 175 to 182 °C. Besides, the IC50 in series [1] is below 500 nM.

Regarding `CC(C)n1c(-c2ccc(S(=O)(=O)NC(CF)CF)cn2)c(C#N)c2ccc(C3CC3)cc21` [compound 83, 6-[3-cyano-6-cyclopropyl-1-(propan-2-yl)-1H-indol-2-yl]-N-(1,3-difluoropropan-2-yl)pyridine-3-sulfonamide], the melting point is 184 to 190 °C. In addition, the IC50 in series [1] was below 500 nM.

For `N#Cc1c(-c2ccc(S(=O)(=O)NC(CF)CF)cn2)n(C2CCCC2)c2cc(C3CC3)ccc12` [compound 85, 6-(3-cyano-1-cyclopentyl-6-cyclopropyl-1H-indol-2-yl)-N-(1,3-difluoropropan-2-yl)pyridine-3-sulfonamide], the melting point lay in the range of 194 to 200 °C. In addition, the IC50 in series [1] was below 500 nM.

Compound `CC(NS(=O)(=O)c1ccc(-c2c(C#N)c3ccc(C4CC4)cc3n2C2CCCC2)nc1)C(F)(F)F` (centres unmarked) [compound 86, 6-(3-cyano-1-cyclopentyl-6-cyclopropyl-1H-indol-2-yl)-N-(1,1,1-trifluoropropan-2-yl)pyridine-3-sulfonamide] displayed a melting point of 166 to 170 °C. For the same compound, in series [1], the concentration for half-maximal inhibition (IC50) was below 500 nM.

`N#Cc1c(-c2ccc(S(=O)(=O)NC(CF)CF)cn2)n(C2CCCC2)c2c(F)cccc12` [compound 87, 6-(3-cyano-1-cyclopentyl-7-fluoro-1H-indol-2-yl)-N-(1,3-difluoropropan-2-yl)pyridine-3-sulfonamide] gave a melting point of 128 to 129 °C. The IC50 in series [1] was below 500 nM.

Compound `N#Cc1c(-c2ccc(S(=O)(=O)NC(CF)CF)cn2)n(C2CCCCC2)c2cc(Cl)ccc12` [compound 89, 6-(6-chloro-3-cyano-1-cyclohexyl-1H-indol-2-yl)-N-(1,3-difluoropropan-2-yl)pyridine-3-sulfonamide] came in with a melting point of 203 to 207 °C. In addition, in series [1], the IC50 is below 500 nM.

`N#Cc1c(-c2ccc(S(=O)(=O)NC(CF)CF)cn2)n(C2CCCCC2)c2cc(C3CC3)ccc12` [compound 92, 6-(3-cyano-1-cyclohexyl-6-cyclopropyl-1H-indol-2-yl)-N-(1,3-difluoropropan-2-yl)pyridine-3-sulfonamide] showed a melting point of 193 to 198 °C. The IC50 in series [1] is below 500 nM.

`N#Cc1c(-c2ccc(S(=O)(=O)NC3(C(F)(F)F)CC3)cn2)n(C2CCCC2)c2cc(OC(F)F)ccc12` [compound 94, 6-[3-cyano-1-cyclopentyl-6-(difluoromethoxy)-1H-indol-2-yl]-N-[1-(trifluoromethyl)cyclopropyl]pyridine-3-sulfonamide] showed a melting point of 186 to 193 °C. Also, the IC50 in series [1] was below 500 nM.

In turn, `N#Cc1c(-c2ccc(S(=O)(=O)NC(CF)CF)cn2)n(-c2ccccc2)c2cc(C3CC3)ccc12` [compound 95, 6-(3-cyano-6-cyclopropyl-1-phenyl-1H-indol-2-yl)-N-(1,3-difluoropropan-2-yl)pyridine-3-sulfonamide] yielded a melting point of 171 to 175 °C. For the same compound, the IC50 in series [1] was below 500 nM.

Consider `N#Cc1c(-c2ccc(S(=O)(=O)NC(CF)CF)cn2)n(-c2ccccn2)c2ccc(F)cc12` [compound 96, 6-[3-cyano-5-fluoro-1-(pyridin-2-yl)-1H-indol-2-yl]-N-(1,3-difluoropropan-2-yl)pyridine-3-sulfonamide], for which the melting point was in the range of 170 to 172 °C. The IC50 in series [1] is below 500 nM.

As to `CC(C)NS(=O)(=O)c1cnc(-c2c(C#N)c3cc(Cl)ccc3n2C2CCCCC2)nc1` [compound 97, 2-(5-chloro-3-cyano-1-cyclohexyl-1H-indol-2-yl)-N-(propan-2-yl)pyrimidine-5-sulfonamide], the melting point was 210 to 215 °C. In addition, in series [1], the IC50 is 500 to 2000 nM.

In turn, `Cc1ccc2c(C#N)c(-c3ncc(S(=O)(=O)NC(C)C)cn3)n(C3CCCCC3)c2c1` [compound 98, 2-(3-cyano-1-cyclohexyl-6-methyl-1H-indol-2-yl)-N-(propan-2-yl)pyrimidine-5-sulfonamide] gave a melting point of 196 to 201 °C. For the same compound, in series [1], the IC50 is below 500 nM.

The compound `N#Cc1c(-c2ccc(S(=O)(=O)NC(CF)CF)cn2)n(C2CCCCC2)c2cc(OC(F)F)ccc12` [compound 100, 6-[3-cyano-1-cyclohexyl-6-(difluoromethoxy)-1H-indol-2-yl]-N-(1,3-difluoropropan-2-yl)pyridine-3-sulfonamide] displayed a melting point of 175 to 178 °C. Besides, in series [1], the IC50 was below 500 nM.

Turning to `COc1cc2c(cc1F)c(C#N)c(-c1ccc(S(=O)(=O)NC(C)C)cn1)n2C1CCC1` [compound 101, 6-(3-cyano-1-cyclobutyl-5-fluoro-6-methoxy-1H-indol-2-yl)-N-(propan-2-yl)pyridine-3-sulfonamide], the melting point fell in the range of 234 to 237 °C. Further, in series [1], the IC50 was below 500 nM.

For `COc1cc2c(cc1F)c(C#N)c(-c1ccc(S(=O)(=O)NC(CF)CF)cn1)n2C1CCC1` [compound 102, 6-(3-cyano-1-cyclobutyl-5-fluoro-6-methoxy-1H-indol-2-yl)-N-(1,3-difluoropropan-2-yl)pyridine-3-sulfonamide], the melting point was in the range of 217 to 219 °C. In series [1], the IC50 was below 500 nM.

`N#Cc1c(-c2ccc(S(=O)(=O)NC(CF)CF)cn2)n(C2CCCCC2)c2ccc(F)cc12` [compound 104, 6-(3-cyano-1-cyclohexyl-5-fluoro-1H-indol-2-yl)-N-(1,3-difluoropropan-2-yl)pyridine-3-sulfonamide] yielded a melting point of 138 to 141 °C. Also, in series [1], the IC50 was below 500 nM.

Take `N#Cc1c(-c2ccc(S(=O)(=O)NC(CF)CF)cn2)n(C2CCCCC2)c2cc(OC(F)(F)F)ccc12` [compound 105, 6-[3-cyano-1-cyclohexyl-6-(trifluoromethoxy)-1H-indol-2-yl]-N-(1,3-difluoropropan-2-yl)pyridine-3-sulfonamide]: the melting point was in the range of 146 to 148 °C. Besides, the IC50 in series [1] is below 500 nM.

`N#Cc1c(-c2ccc(S(=O)(=O)NC(CF)CF)cn2)n(C2CCC2)c2cc(C3CC3)c(F)cc12` [compound 107, 6-(3-cyano-1-cyclobutyl-6-cyclopropyl-5-fluoro-1H-indol-2-yl)-N-(1,3-difluoropropan-2-yl)pyridine-3-sulfonamide] came in with a melting point of 182 to 186 °C. For the same compound, the IC50 in series [1] was below 500 nM.

In the case of `Cc1cc2c(cc1F)c(C#N)c(-c1ccc(S(=O)(=O)NC(CF)CF)cn1)n2C1CCC1` [compound 108, 6-(3-cyano-1-cyclobutyl-5-fluoro-6-methyl-1H-indol-2-yl)-N-(1,3-difluoropropan-2-yl)pyridine-3-sulfonamide], the melting point lay within 186 to 188 °C. For the same compound, the IC50 in series [1] was below 500 nM.

As to `N#Cc1c(-c2ccc(S(=O)(=O)NC(CF)CF)cn2)n(CC2CC2)c2cc(Cl)c(F)cc12` [compound 110, 6-[6-chloro-3-cyano-1-(cyclopropylmethyl)-5-fluoro-1H-indol-2-yl]-N-(1,3-difluoropropan-2-yl)pyridine-3-sulfonamide], the melting point is 202 to 204 °C. For the same compound, in series [1], the IC50 is below 500 nM.

As to `Cc1ccc2c(C#N)c(-c3ccc(S(=O)(=O)NC(CF)CF)cn3)n(-c3ccccc3)c2c1` [compound 111, 6-(3-cyano-6-methyl-1-phenyl-1H-indol-2-yl)-N-(1,3-difluoropropan-2-yl)pyridine-3-sulfonamide], the melting point is 181 to 185 °C. Moreover, the IC50 in series [1] was below 500 nM.

The compound `N#Cc1c(-c2ccc(S(=O)(=O)NC(CF)CF)cn2)n(-c2ccccc2)c2ccc(Cl)cc12` [compound 112, 6-(5-chloro-3-cyano-1-phenyl-1H-indol-2-yl)-N-(1,3-difluoropropan-2-yl)pyridine-3-sulfonamide] gave a melting point of 192 to 196 °C. Moreover, the IC50 in series [1] is below 500 nM.

With `N#Cc1c(-c2ccc(S(=O)(=O)NC(CF)CF)cn2)n(-c2ccccc2)c2ccc(F)cc12` [compound 113, 6-(3-cyano-5-fluoro-1-phenyl-1H-indol-2-yl)-N-(1,3-difluoropropan-2-yl)pyridine-3-sulfonamide], the melting point is 165 to 168 °C. Also, the IC50 in series [1] was below 500 nM.

With `CC(C)NS(=O)(=O)c1cnc(-c2c(C#N)c3cc(Cl)ccc3n2C2CCC2)nc1` [compound 114, 2-(5-chloro-3-cyano-1-cyclobutyl-1H-indol-2-yl)-N-(propan-2-yl)pyrimidine-5-sulfonamide], the melting point was > 198 °C (dec.). Also, the IC50 in series [1] was below 500 nM.

`CC(C)NS(=O)(=O)c1cnc(-c2c(C#N)c3ccc(Cl)cc3n2C2CCC2)nc1` [compound 115, 2-(6-chloro-3-cyano-1-cyclobutyl-1H-indol-2-yl)-N-(propan-2-yl)pyrimidine-5-sulfonamide] returned a melting point of 228 to 229 °C. Besides, the IC50 in series [1] was below 500 nM.

`CC(C)NS(=O)(=O)c1cnc(-c2c(C#N)c3ccc(OC(F)(F)F)cc3n2C2CCC2)nc1` [compound 116, 2-[3-cyano-1-cyclobutyl-6-(trifluoromethoxy)-1H-indol-2-yl]-N-(propan-2-yl)pyrimidine-5-sulfonamide] had a melting point of 200 to 203 °C. Besides, the IC50 in series [1] is below 500 nM.

For the compound `CC(C)NS(=O)(=O)c1cnc(-c2c(C#N)c3ccc(OC(F)(F)F)cc3n2C2CCCC2)nc1` [compound 117, 2-[3-cyano-1-cyclopentyl-6-(trifluoromethoxy)-1H-indol-2-yl]-N-(propan-2-yl)pyrimidine-5-sulfonamide], the melting point lay within 216 to 218 °C. Moreover, in series [1], the IC50 lay within 500 to 2000 nM.

Consider `C[C@H](NS(=O)(=O)c1ccc(-c2c(C#N)c3cc(Cl)ccc3n2C2CCC2)nc1)C1CC1` [compound 119, 6-(5-chloro-3-cyano-1-cyclobutyl-1H-indol-2-yl)-N-[(1S)-1-cyclopropylethyl]pyridine-3-sulfonamide], for which the melting point lay in the range of 154 to 155 °C. Further, in series [1], the IC50 was below 500 nM.
